Measurements reported in PubChem BioAssay AID248 (DTP/NCI, 2004).
Where “and” joins values, the source holds several entries; their conditions need not be identical. Equal values may be shown once. Inconclusive results and toxic doses are left out. No stated cut-off is given here; in the data, active means T/C of 150% or more; inactive means T/C below 125%.

System: L1210 leukemia ip in BDF1 mice, survival T/C
Test: NCI In Vivo Anticancer Drug Screen. Data for tumor model L1210 Leukemia (intraperitoneal) in B6D2F1 (BDF1) mice
Details: higher = longer survival
How it was run: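 Ratio derived from survival: compound-dosed mice over vehicle-dosed mice, all bearing a transplantable tumor.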

[1] = endpoint: mean survival time, dose: 100.0 mg/kg/injection, schedule: Q01DX009 (ip), vehicle: saline with Tween-80
[2] = endpoint: mean survival time, dose: 200.0 mg/kg/injection, schedule: Q01DX009 (ip), vehicle: saline with Tween-80
[3] = endpoint: mean survival time, dose: 100.0 mg/kg/injection, schedule: Q04DX003 (ip), vehicle: saline with Tween-80
[4] = endpoint: mean survival time, dose: 200.0 mg/kg/injection, schedule: Q04DX003 (ip), vehicle: saline with Tween-80

Measured: T/C

C[N+]1(C)C2CCCC1CCC2
inactive: endpoint: mean survival time, dose: 3.12 mg/kg/injection, schedule: Q04DX002 (ip), vehicle: Klucel (hydroxypropylcellulose) (HPC) 93 % of control | endpoint: mean survival time, dose: 6.25 mg/kg/injection, schedule: Q04DX002 (ip), vehicle: Klucel (hydroxypropylcellulose) (HPC) 104 % of control | endpoint: mean survival time, dose: 12.5 mg/kg/injection, schedule: Q04DX002 (ip), vehicle: Klucel (hydroxypropylcellulose) (HPC) 90 % of control

COC(CSc1ncc2cnccn12)OC
inactive: endpoint: mean survival time, dose: 100.0 mg/kg/injection, schedule: Q01DX009 (ip), vehicle: water 102 % of control | endpoint: mean survival time, dose: 100.0 mg/kg/injection, schedule: Q04DX003 (ip), vehicle: water 103 % of control | endpoint: mean survival time, dose: 200.0 mg/kg/injection, schedule: Q01DX009 (ip), vehicle: water 100 % of control | endpoint: mean survival time, dose: 200.0 mg/kg/injection, schedule: Q04DX003 (ip), vehicle: water 106 % of control | endpoint: mean survival time, dose: 400.0 mg/kg/injection, schedule: Q01DX009 (ip), vehicle: water 100 % of control | endpoint: mean survival time, dose: 400.0 mg/kg/injection, schedule: Q04DX003 (ip), vehicle: water 108 % of control

O=C1CCCCC1C(O)(C(=O)c1ccccc1)c1ccccc1 (centres undefined) (tested in a mixture with another compound)
inactive: endpoint: mean survival time, dose: 50.0 mg/kg/injection, schedule: Q01DX009 (ip), vehicle: saline with Tween-80 97 % of control | [1] 87 % of control | [2] 91 % of control

CCCCCOC(=O)C#CC(=O)OCCCCC
inactive: endpoint: mean survival time, dose: 1.56 mg/kg/injection, schedule: Q01DX009 (ip), vehicle: carboxymethylcellulose (CMC) 92 % of control and 101 % of control | endpoint: mean survival time, dose: 3.13 mg/kg/injection, schedule: Q01DX009 (ip), vehicle: carboxymethylcellulose (CMC) 108 % of control and 89 % of control | endpoint: mean survival time, dose: 12.5 mg/kg/injection, schedule: Q01DX009 (ip), vehicle: carboxymethylcellulose (CMC) 89 % of control | endpoint: mean survival time, dose: 12.5 mg/kg/injection, schedule: Q04DX003 (ip), vehicle: carboxymethylcellulose (CMC) 98 % of control | endpoint: mean survival time, dose: 25.0 mg/kg/injection, schedule: Q04DX003 (ip), vehicle: carboxymethylcellulose (CMC) 98 % of control | endpoint: mean survival time, dose: 50.0 mg/kg/injection, schedule: Q01DX009 (ip), vehicle: carboxymethylcellulose (CMC) 89 % of control | endpoint: mean survival time, dose: 50.0 mg/kg/injection, schedule: Q04DX003 (ip), vehicle: carboxymethylcellulose (CMC) 96 % of control and 100 % of control | endpoint: mean survival time, dose: 100.0 mg/kg/injection, schedule: Q04DX002 (ip), vehicle: carboxymethylcellulose (CMC) 97 % of control and 106 % of control | endpoint: mean survival time, dose: 200.0 mg/kg/injection, schedule: Q04DX002 (ip), vehicle: carboxymethylcellulose (CMC) 95 % of control and 97 % of control

CC1(C)CCC(NC(=O)NCCF)CC1
inactive: endpoint: mean survival time, dose: 9.5 mg/kg/injection, schedule: Q01DX001 (ip), vehicle: other 95 % of control | endpoint: mean survival time, dose: 19.0 mg/kg/injection, schedule: Q01DX001 (ip), vehicle: other 102 % of control | endpoint: mean survival time, dose: 38.0 mg/kg/injection, schedule: Q01DX001 (ip), vehicle: other 101 % of control

COc1ccc(C2(C)C(C#N)C(=O)NC(=O)C2C#N)cc1 (centres undefined)
inactive: endpoint: mean survival time, dose: 100.0 mg/kg/injection, schedule: Q01DX001 (ip), vehicle: saline 98 % of control | endpoint: mean survival time, dose: 200.0 mg/kg/injection, schedule: Q01DX001 (ip), vehicle: saline 122 % of control | endpoint: mean survival time, dose: 400.0 mg/kg/injection, schedule: Q01DX001 (ip), vehicle: saline 104 % of control

Cc1cc(C(C)(C)C)c(SC(=O)N(C)C)c(C(C)(C)C)c1
inactive: [3] 97 % of control | [4] 95 % of control

COC(=O)c1cccc(N=NN(C)C)c1
inactive: endpoint: mean survival time, dose: 50.0 mg/kg/injection, schedule: Q01DX009 (ip), vehicle: Klucel (hydroxypropylcellulose) (HPC) 105 % of control | endpoint: mean survival time, dose: 100.0 mg/kg/injection, schedule: Q01DX009 (ip), vehicle: Klucel (hydroxypropylcellulose) (HPC) 119 % of control | endpoint: mean survival time, dose: 200.0 mg/kg/injection, schedule: Q01DX009 (ip), vehicle: Klucel (hydroxypropylcellulose) (HPC) 108 % of control | endpoint: median survival time, dose: 23.0 mg/kg/injection, schedule: Q01DX009 (ip), vehicle: steriod suspending solution 110 % of control | endpoint: median survival time, dose: 65.0 mg/kg/injection, schedule: Q01DX001 (ip), vehicle: steriod suspending solution 100 % of control | endpoint: median survival time, dose: 65.0 mg/kg/injection, schedule: Q04DX003 (ip), vehicle: steriod suspending solution 105 % of control | endpoint: median survival time, dose: 108.0 mg/kg/injection, schedule: Q01DX001 (ip), vehicle: steriod suspending solution 100 % of control | endpoint: median survival time, dose: 108.0 mg/kg/injection, schedule: Q04DX003 (ip), vehicle: steriod suspending solution 110 % of control | endpoint: median survival time, dose: 180.0 mg/kg/injection, schedule: Q01DX001 (ip), vehicle: steriod suspending solution 110 % of control | endpoint: median survival time, dose: 300.0 mg/kg/injection, schedule: Q01DX001 (ip), vehicle: steriod suspending solution 110 % of control | endpoint: median survival time, dose: 833.0 mg/kg/injection, schedule: Q01DX001 (ip), vehicle: steriod suspending solution 100 % of control

COc1ccc(C2=CCCCC2)cc1
inactive: [1] 97 % of control | [3] 105 % of control | [2] 91 % of control | [4] 110 % of control | endpoint: mean survival time, dose: 400.0 mg/kg/injection, schedule: Q01DX009 (ip), vehicle: saline with Tween-80 94 % of control | endpoint: mean survival time, dose: 400.0 mg/kg/injection, schedule: Q04DX003 (ip), vehicle: saline with Tween-80 103 % of control

CC(C)(C)c1cc2c(cc1O)C(C)(C)CCC2(C)C
inactive: endpoint: mean survival time, dose: 100.0 mg/kg/injection, schedule: Q04DX002 (ip), vehicle: Klucel (hydroxypropylcellulose) (HPC) 105 % of control | endpoint: mean survival time, dose: 200.0 mg/kg/injection, schedule: Q04DX002 (ip), vehicle: Klucel (hydroxypropylcellulose) (HPC) 105 % of control | endpoint: mean survival time, dose: 400.0 mg/kg/injection, schedule: Q04DX002 (ip), vehicle: Klucel (hydroxypropylcellulose) (HPC) 98 % of control

CSc1ccnc2c1cnn2C1OC(CO)C(O)C1O (centres undefined)
inactive: endpoint: mean survival time, dose: 50.0 mg/kg/injection, schedule: Q01DX005 (ip), vehicle: other 109 % of control | endpoint: mean survival time, dose: 100.0 mg/kg/injection, schedule: Q01DX005 (ip), vehicle: other 102 % of control | endpoint: mean survival time, dose: 200.0 mg/kg/injection, schedule: Q01DX005 (ip), vehicle: other 98 % of control

S=C1CC2CCCC(C2)N1 (centres undefined)
inactive: endpoint: mean survival time, dose: 10.0 mg/kg/injection, schedule: Q01DX001 (ip), vehicle: carboxymethylcellulose (CMC) 93 % of control | endpoint: mean survival time, dose: 20.0 mg/kg/injection, schedule: Q01DX001 (ip), vehicle: carboxymethylcellulose (CMC) 93 % of control | endpoint: mean survival time, dose: 80.0 mg/kg/injection, schedule: Q01DX001 (ip), vehicle: carboxymethylcellulose (CMC) 100 % of control

C=C(C)CNC(=O)Oc1cccc(NC(=O)OC)c1
inactive: endpoint: mean survival time, dose: 100.0 mg/kg/injection, schedule: Q01DX001 (ip), vehicle: saline with Tween-80 97 % of control | endpoint: mean survival time, dose: 200.0 mg/kg/injection, schedule: Q01DX001 (ip), vehicle: saline with Tween-80 95 % of control | endpoint: mean survival time, dose: 400.0 mg/kg/injection, schedule: Q01DX001 (ip), vehicle: saline with Tween-80 92 % of control

CN(C)C=NC(c1ccccc1)c1ccc(Cl)cc1 (centres undefined)
inactive: endpoint: mean survival time, dose: 75.0 mg/kg/injection, schedule: Q01DX009 (ip), vehicle: saline with Tween-80 95 % of control | endpoint: mean survival time, dose: 150.0 mg/kg/injection, schedule: Q01DX009 (ip), vehicle: saline with Tween-80 95 % of control | endpoint: mean survival time, dose: 300.0 mg/kg/injection, schedule: Q01DX009 (ip), vehicle: saline with Tween-80 100 % of control

C[CH2][Sn]1([CH2]C)[O]OC(c2ccccc2)[O]1 (centres undefined)
inactive: endpoint: mean survival time, dose: 0.78 mg/kg/injection, schedule: Q01DX009 (ip), vehicle: saline with Tween-80 101 % of control and 102 % of control | endpoint: mean survival time, dose: 1.56 mg/kg/injection, schedule: Q01DX009 (ip), vehicle: saline with Tween-80 101 % of control and 110 % of control | endpoint: mean survival time, dose: 3.12 mg/kg/injection, schedule: Q01DX009 (ip), vehicle: saline with Tween-80 105 % of control and 122 % of control | endpoint: mean survival time, dose: 6.25 mg/kg/injection, schedule: Q01DX009 (ip), vehicle: saline with Tween-80 100 % of control | endpoint: mean survival time, dose: 6.25 mg/kg/injection, schedule: Q04DX002 (ip), vehicle: saline with Tween-80 94 % of control | endpoint: mean survival time, dose: 12.5 mg/kg/injection, schedule: Q01DX009 (ip), vehicle: saline with Tween-80 114 % of control and 121 % of control | endpoint: mean survival time, dose: 12.5 mg/kg/injection, schedule: Q04DX002 (ip), vehicle: saline with Tween-80 96 % of control | endpoint: mean survival time, dose: 25.0 mg/kg/injection, schedule: Q01DX009 (ip), vehicle: saline with Tween-80 91 % of control

CC(C)(C)CC(=O)OCCC[N+](C)(C)C
inactive: endpoint: mean survival time, dose: 25.0 mg/kg/injection, schedule: Q01DX009 (ip), vehicle: water 104 % of control | endpoint: mean survival time, dose: 50.0 mg/kg/injection, schedule: Q01DX009 (ip), vehicle: water 106 % of control

CC1(C)OB(C(Br)(B2OC(C)(C)C(C)(C)O2)B2OC(C)(C)C(C)(C)O2)OC1(C)C
inactive: endpoint: mean survival time, dose: 100.0 mg/kg/injection, schedule: Q01DX001 (ip), vehicle: Klucel (hydroxypropylcellulose) (HPC) 100 % of control | endpoint: mean survival time, dose: 200.0 mg/kg/injection, schedule: Q01DX001 (ip), vehicle: Klucel (hydroxypropylcellulose) (HPC) 100 % of control | endpoint: mean survival time, dose: 400.0 mg/kg/injection, schedule: Q01DX001 (ip), vehicle: Klucel (hydroxypropylcellulose) (HPC) 108 % of control
